Test results published in ChEMBL document CHEMBL1909046, “DrugMatrix in vitro pharmacology data”.
Where a SMILES comes first, the peptide text is derived from it. Bridges are numbered along the chain shown (N, C = ends). [ ]: non-standard residue; d: D form. The star is where a group is joined. Threoninol(2S,3R) = C[C@@H](O)[C@H](CO)N*

Experiments:
Cytochrome P450 2C19 = Cytochrome P450 2C19 (Homo sapiens, UniProt P33261); settings: bti-tn-5b1-4; note: in other assays of this panel Not Active means under 50% inhibition at 10 µM
[1] = target: T1, Alpha-1D adrenergic receptor (Homo sapiens, UniProt P25100); type: cell membranes, HEK293, Membrane; settings: hek293; note: in other assays of this panel Not Active means under 50% inhibition at 10 µM
T1 sequence (P25100 whole entry): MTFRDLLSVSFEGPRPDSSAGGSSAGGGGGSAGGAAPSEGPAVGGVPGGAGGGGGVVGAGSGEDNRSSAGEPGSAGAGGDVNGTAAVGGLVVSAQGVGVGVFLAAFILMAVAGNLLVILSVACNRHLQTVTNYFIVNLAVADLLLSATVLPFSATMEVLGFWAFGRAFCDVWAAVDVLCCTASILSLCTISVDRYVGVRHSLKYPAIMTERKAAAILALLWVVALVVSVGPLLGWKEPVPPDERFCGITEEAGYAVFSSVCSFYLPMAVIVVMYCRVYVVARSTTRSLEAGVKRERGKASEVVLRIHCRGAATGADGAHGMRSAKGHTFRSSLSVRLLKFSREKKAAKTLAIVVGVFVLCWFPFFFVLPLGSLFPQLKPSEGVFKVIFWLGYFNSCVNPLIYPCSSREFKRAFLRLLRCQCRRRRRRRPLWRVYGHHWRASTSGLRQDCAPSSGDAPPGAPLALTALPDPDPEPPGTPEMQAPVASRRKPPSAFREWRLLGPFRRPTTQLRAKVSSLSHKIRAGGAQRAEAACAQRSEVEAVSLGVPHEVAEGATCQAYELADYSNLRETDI

[2] = target: Matrix metalloproteinase-9 (Homo sapiens, UniProt P14780); experiment: biochemical; type: cell-based;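 note: inhibition of isolated MMP-9 enzyme activity toward a synthetic peptide substrate, from the DrugMatrix protease screening panel; in other assays of this panel Not Active means under 50% inhibition at 10 µM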
Glycine receptor = Glycine receptor (Rattus norvegicus, UniProt P22771+P24524+P07727+P20781); type: cell membranes, Wistar, Spinal cord, Membrane; note: in other assays of this panel Not Active means under 50% inhibition at 10 µM
[3] = target: T2, Alpha-2C adrenergic receptor (Homo sapiens, UniProt P18825); experiment: DRUGMATRIX: Adrenergic Alpha-2C radioligand binding (ligand: [3H] MK-912); type: cell membranes, Sf9, Membrane; for IC50: call rule not given here
T2 sequence (P18825 whole entry): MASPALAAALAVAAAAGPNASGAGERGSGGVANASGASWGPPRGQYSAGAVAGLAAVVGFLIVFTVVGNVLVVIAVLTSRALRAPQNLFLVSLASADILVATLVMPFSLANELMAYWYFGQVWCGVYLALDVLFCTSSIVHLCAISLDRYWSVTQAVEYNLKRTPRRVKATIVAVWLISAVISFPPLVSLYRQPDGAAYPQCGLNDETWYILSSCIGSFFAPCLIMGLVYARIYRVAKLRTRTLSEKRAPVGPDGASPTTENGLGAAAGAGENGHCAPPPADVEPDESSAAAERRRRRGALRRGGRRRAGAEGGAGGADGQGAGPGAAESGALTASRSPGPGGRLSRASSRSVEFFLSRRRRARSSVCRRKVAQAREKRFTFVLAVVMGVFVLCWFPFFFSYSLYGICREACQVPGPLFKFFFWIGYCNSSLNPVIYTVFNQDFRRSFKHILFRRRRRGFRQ

[4] = target: C-C chemokine receptor type 2 (Homo sapiens, UniProt P41597); type: cell membranes, CHO-K1, Membrane; note: in other assays of this panel Not Active means under 50% inhibition at 10 µM
Chain of C-C chemokine receptor type 2 (P41597 whole entry): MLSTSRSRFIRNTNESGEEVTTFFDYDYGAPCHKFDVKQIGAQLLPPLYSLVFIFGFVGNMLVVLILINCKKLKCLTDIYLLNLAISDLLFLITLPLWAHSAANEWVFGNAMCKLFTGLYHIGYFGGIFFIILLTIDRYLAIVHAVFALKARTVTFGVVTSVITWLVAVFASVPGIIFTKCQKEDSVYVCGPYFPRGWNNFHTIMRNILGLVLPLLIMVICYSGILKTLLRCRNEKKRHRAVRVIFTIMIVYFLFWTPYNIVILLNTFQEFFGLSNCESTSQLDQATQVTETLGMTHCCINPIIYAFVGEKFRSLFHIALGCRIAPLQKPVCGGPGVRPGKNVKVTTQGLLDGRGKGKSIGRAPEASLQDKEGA

Chain of Cytochrome P450 2C19 (P33261 whole entry): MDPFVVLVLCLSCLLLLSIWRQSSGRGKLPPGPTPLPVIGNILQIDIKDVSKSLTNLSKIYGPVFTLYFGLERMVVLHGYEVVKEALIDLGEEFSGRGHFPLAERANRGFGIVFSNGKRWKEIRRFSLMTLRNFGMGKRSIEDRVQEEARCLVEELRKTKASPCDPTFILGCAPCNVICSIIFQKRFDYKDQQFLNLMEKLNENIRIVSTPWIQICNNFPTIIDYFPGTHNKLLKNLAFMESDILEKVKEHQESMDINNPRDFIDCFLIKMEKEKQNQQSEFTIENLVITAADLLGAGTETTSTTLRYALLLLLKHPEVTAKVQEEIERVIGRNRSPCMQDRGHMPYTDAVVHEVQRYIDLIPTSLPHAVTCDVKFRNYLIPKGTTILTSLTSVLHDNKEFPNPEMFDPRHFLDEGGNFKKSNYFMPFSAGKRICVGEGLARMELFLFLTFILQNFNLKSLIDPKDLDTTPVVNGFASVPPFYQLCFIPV
Chain of Matrix metalloproteinase-9 (P14780 whole entry): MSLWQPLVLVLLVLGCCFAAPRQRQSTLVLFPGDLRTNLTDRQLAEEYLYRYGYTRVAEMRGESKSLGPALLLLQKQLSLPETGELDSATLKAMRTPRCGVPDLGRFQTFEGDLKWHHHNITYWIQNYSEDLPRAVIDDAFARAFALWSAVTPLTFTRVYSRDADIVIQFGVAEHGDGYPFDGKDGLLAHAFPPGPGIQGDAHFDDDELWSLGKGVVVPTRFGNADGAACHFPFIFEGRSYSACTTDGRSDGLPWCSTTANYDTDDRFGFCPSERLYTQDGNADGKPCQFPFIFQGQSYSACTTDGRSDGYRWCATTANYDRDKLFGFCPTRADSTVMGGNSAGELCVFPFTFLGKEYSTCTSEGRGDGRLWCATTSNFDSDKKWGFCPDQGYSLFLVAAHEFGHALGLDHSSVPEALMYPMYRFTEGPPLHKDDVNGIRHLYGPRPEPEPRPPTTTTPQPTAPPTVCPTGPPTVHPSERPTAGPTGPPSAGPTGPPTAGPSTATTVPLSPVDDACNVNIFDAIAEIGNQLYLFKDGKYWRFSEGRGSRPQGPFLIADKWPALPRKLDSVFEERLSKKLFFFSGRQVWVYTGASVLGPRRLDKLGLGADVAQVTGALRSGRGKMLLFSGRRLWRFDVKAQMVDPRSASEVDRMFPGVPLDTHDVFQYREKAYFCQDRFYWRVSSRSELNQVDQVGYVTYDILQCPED

Row | SMILES | IC50 (Cytochrome P450 2C19) | Ki (Cytochrome P450 2C19) | IC50 [1] | IC50 [2] | IC50 (Glycine receptor) | IC50 ([3]; sf9) | IC50 ([4]; cho-k1) | IC50 ([3]; read-out: IC50) | Ki ([3]; read-out: Ki) | IC50 ([4]; read-out: IC50) | Ki ([4]; read-out: Ki) | IC50 ([2]; read-out: IC50) | Ki [1] | Ki [2] | Ki (Glycine receptor) | Ki ([3]; sf9) | Ki ([4]; cho-k1)
1 | COc1cccc2c1C(=O)c1c(O)c3c(c(O)c1C2=O)C[C@@](O)(C(=O)CO)C[C@@H]3O[C@H]1C[C@H](N)[C@H](O)[C@H](C)O1 [DOXORUBICIN] | Not Active | Not Active | Not Active | Not Active | Not Active | Not Active | Not Active |  |  |  |  |  |  |  |  |  | 
2 | C[C@H]1C[C@H]2[C@@H]3CCC4=CC(=O)C=C[C@]4(C)[C@@]3(Cl)[C@@H](O)C[C@]2(C)[C@@]1(O)C(=O)CO [BECLOMETHASONE] | Not Active | Not Active | Not Active | Not Active | Not Active | Not Active | Not Active |  |  |  |  |  |  |  |  |  | 
3 | CCN(CC)CCOC(=O)c1ccc(N)cc1 [PROCAINE] | Not Active | Not Active | Not Active | Not Active | Not Active | Not Active | Not Active |  |  |  |  |  |  |  |  |  | 
4 | O=C(O)Cc1ccccc1Nc1c(Cl)cccc1Cl [DICLOFENAC] | Not Active | Not Active | Not Active | Not Active | Not Active | Not Active | Not Active |  |  |  |  |  |  |  |  |  | 
5 | CC(C)[C@H]1CC[C@H](C(=O)N[C@H](Cc2ccccc2)C(=O)O)CC1 [NATEGLINIDE] | Not Active | Not Active | Not Active | Not Active | Not Active | Not Active | Not Active |  |  |  |  |  |  |  |  |  | 
6 | Nc1c(CC(=O)O)cccc1C(=O)c1ccc(Br)cc1 [BROMFENAC] | Not Active | Not Active | Not Active | Not Active | Not Active | Not Active | Not Active |  |  |  |  |  |  |  |  |  | 
7 | CC(=O)Nc1cccc(O)c1 [METACETAMOL] | Not Active | Not Active | Not Active | Not Active | Not Active | Not Active | Not Active |  |  |  |  |  |  |  |  |  | 
8 | COc1ccc2c(c1)c(CC(=O)O)c(C)n2C(=O)c1ccc(Cl)cc1 [INDOMETHACIN] | Not Active | Not Active | Not Active | Not Active | Not Active | Not Active | Not Active |  |  |  |  |  |  |  |  |  | 
9 | C[C@H]1O[C@@H](O[C@H]2[C@@H](O)C[C@H](O[C@H]3[C@@H](O)C[C@H](O[C@H]4CC[C@@]5(C)[C@H](CC[C@@H]6[C@@H]5CC[C@]5(C)[C@@H](C7=CC(=O)OC7)CC[C@]65O)C4)O[C@@H]3C)O[C@@H]2C)C[C@H](O)[C@@H]1O [DIGITOXIN] | Not Active | Not Active | Not Active | Not Active | Not Active | Not Active | Not Active |  |  |  |  |  |  |  |  |  | 
10 | S=C=Nc1cccc2ccccc12 [1-NAPHTHYLISOTHIOCYANATE] | Not Active | Not Active | Not Active | Not Active | Not Active |  |  | 54.5 µM | 7.92 µM | 6.7 µM | 2.59 µM |  |  |  |  |  | 
11 | C[C@]12CC[C@@H]3c4ccc(O)cc4CC[C@H]3[C@@H]1CC[C@@H]2O [ESTRADIOL] | Not Active | Not Active | Not Active | Not Active | Not Active | Not Active | Not Active |  |  |  |  |  |  |  |  |  | 
12 | CN(C)/N=N/c1[nH]cnc1C(N)=O [DACARBAZINE] | Not Active | Not Active | Not Active |  | Not Active | Not Active | Not Active |  |  |  |  | 0.556 µM |  |  |  |  | 
13 | COc1ccc2c(c1)[C@]13CCCC[C@@H]1[C@H](C2)N(C)CC3 [DEXTROMETHORPHAN] | Not Active | Not Active | Not Active | Not Active | Not Active | Not Active | Not Active |  |  |  |  |  |  |  |  |  | 
14 | C=C1CC[C@H](O)C/C1=C/C=C1\CCC[C@]2(C)[C@@H]([C@H](C)CCCC(C)C)CC[C@@H]12 [CHOLECALCIFEROL] | Not Active | Not Active | Not Active | Not Active | Not Active | Not Active | Not Active |  |  |  |  |  |  |  |  |  | 
15 | COc1cc2c(c3oc(=O)c4c(c13)CCC4=O)[C@@H]1C=CO[C@@H]1O2 [AFLATOXIN] | Not Active | Not Active | Not Active | Not Active | Not Active | Not Active | Not Active |  |  |  |  |  | Not Active | Not Active | Not Active | Not Active | Not Active
16 | CC(C)Cc1ccc(C(C)C(=O)O)cc1 (configuration not stated) [IBUPROFEN] | Not Active | Not Active | Not Active | Not Active | Not Active | Not Active | Not Active |  |  |  |  |  |  |  |  |  | 
17 | CC(C)(C(=O)c1cccnc1)c1cccnc1 [METYRAPONE] | Not Active | Not Active | Not Active | Not Active | Not Active | Not Active | Not Active |  |  |  |  |  |  |  |  |  | 
18 | Cc1ncc([N+](=O)[O-])n1CCO [METRONIDAZOLE] | Not Active | Not Active | Not Active | Not Active | Not Active | Not Active | Not Active |  |  |  |  |  |  |  |  |  | 
19 | C[C@@H](O)[C@H](CO)NC(=O)[C@@H]1CSSC[C@H](NC(=O)[C@H](N)Cc2ccccc2)C(=O)N[C@@H](Cc2ccccc2)C(=O)N[C@H](Cc2c[nH]c3ccccc23)C(=O)N[C@@H](CCCCN)C(=O)N[C@@H]([C@@H](C)O)C(=O)N1 (H-[dF]CF[dW]KTC-{Threoninol(2S,3R)}; disulfide 2-7) | Not Active | Not Active | Not Active | Not Active | Not Active | Not Active | Not Active |  |  |  |  |  |  |  |  |  | 
20 | COc1ccc2[nH]c([S+]([O-])Cc3ncc(C)c(OC)c3C)nc2c1 (configuration not stated) [OMEPRAZOLE] | Not Active | Not Active | Not Active | Not Active | Not Active | Not Active | Not Active |  |  |  |  |  |  |  |  |  | 
